{
  "source": "patent US20170014375A1",
  "about": "“PHARMACEUTICAL COMPOSITION COMPRISING EFFECTIVE DOSE OF POMIFERIN FOR TREATING CANCERS” (Macau University of Science and Technology, priority 2015, published 2017)",
  "key": {"[1]": {"test_system": "caspase-3 deficient (caspase 3KO) mouse embryonic fibroblasts", "assay": "MTT cytotoxicity assay, caspase 3KO MEFs", "type": "cell-based", "details": "Fibroblast, 72 h, 3 days, read-out: Means of IC50", "protocol": "(§1) The test compound of pomiferin is dissolved in DMSO at a final concentration of 100 mmol/L and stored at −20° C. Cytotoxicity is assessed using the 3-(4,5-dimethylthiazol-2-yl)-2,5-diphenyltetrazolium bromide assay as previously described^29. 2500 of caspase wild-type (caspase WT), caspase-3 deficient (caspase 3KO), caspase-7 deficient (caspase 7KO), caspase-3/-7 deficient (caspase 3/7 DKO), caspase-8 deficient (caspase 8KO), Bax-Bak wild-type (Bak-Bak WT) and Bax-Bak double knock out (Bak-Bak DKO) mouse embryonic fibroblasts (MEFs) are seeded on 96-well plates per well. After overnight pre-incubation, the cells are exposed to different concentrations of pomiferin (namely 100, 50, 25, 12.5, 6.25, 3.125, 1.5625, 0.78, 0.39, 0.195, 0.079, 0.039 μmol/L) for 3 days. Subsequently, 10 μL of MTT reagents is added to each well and incubated at 37° C. for 4 hours, followed by the addition of 100 μL solubilization buffer (10% SDS in 0.01 mol/L HCl) and overnight incubation. Absorbance at 585 nm is determined from each well on the following day. The percentage of cell viability is calculated using the following formula: Cell viability (%)=Cells numbertreated/Cells numberDMSO control×100. Data is obtained from three independent experiments."}, "Bax-Bak wild-type MEFs": {"test_system": "Bax-Bak wild-type MEFs", "assay": "Annexin V/PI flow cytometry cell death, Bax-Bak wild-type MEFs", "type": "cell-based, mouse", "details": "5 μM, 24 h", "protocol": "(§2) Cell death is measured using an annexin V staining kit (BD Biosciences, San Jose, Calif., USA). Briefly, Bax-Bak wild-type and Bax-Bak DKO MEFs are treated with the 5 μM pomiferin for 24 h. Cells are then harvested and analysed by multiparametric flow cytometry using FITC-Annexin V and Propidium iodide staining (BD Biosciences, San Jose, Calif., USA) according to the manufacturer's instructions. Flow cytometry is then carried out using a FACSCalibur flow cytometer (BD Biosciences, San Jose, Calif., USA). Data acquisition and analysis is performed with CellQuest (BD Biosciences, San Jose, Calif., USA). Data are obtained from three independent experiments."}, "[2]": {"test_system": "HeLa (human cervical cancer) cells", "assay": "MTT cytotoxicity assay, HeLa", "type": "cell-based", "details": "72 h, 3 days, read-out: Means of IC50", "protocol": "Pomiferin is dissolved in DMSO at a final concentration of 100 mmol/L and stored at −20° C. Cytotoxicity is assessed using the 3-(4,5-dimethylthiazol-2-yl)-2,5-diphenyltetrazolium bromide assay. 4000-8000 HeLa (human cervical cancer), MCF-7 (human breast cancer), HepG2 and Hep3B (human liver cancer), H1299 and A549 (human lung cancer), LNCap (human prostate cancer) and LLC-1 (mouse Lewis lung carcinoma) cells are seeded on 96-well plates per well. After overnight pre-incubation, the cells are exposed to different concentrations of pomiferin ([…]) for 3 days. Subsequently, 10 μL of MTT reagents is added to each well and incubated at 37° C. for 4 hours followed by the addition of 100 μL solubilization buffer (10% SDS in 0.01 mol/L HCl) and overnight incubation. Absorbance at 585 nm is determined from each well the next day. The percentage of cell viability is calculated using the following formula: Cell viability (%)=Cells number treated/Cells number DMSO control×100. Data are obtained from three independent experiments."}, "[3]": {"test_system": "AMPK-mTOR signaling in HeLa cancer cells", "assay": "Western blot of mTOR signaling marker proteins (P-AMPK, P-p70S6K)", "type": "cell-based, human", "details": "FIG. 3A", "protocol": "HeLa cancer cells treated with indicated time and concentrations of pomiferin are harvested and lysed in RIPA buffer (Cell Signaling). The cell lysates are then resolved by SDS-PAGE. After electrophoresis, the proteins from SDS-PAGE are transferred to nitrocellulose membrane which is then blocked with 5% non-fat dried milk for 60 minutes. The membrane is then incubated with P-p70S6K, p70S6K, P-AMPK, AMPK and actin primary antibodies (1:1000) in TBST overnight at 4° C. respectively. After that, the membrane is further incubated with HRP-conjugated secondary antibodies for 60 minutes. Finally, protein bands are visualized by using the ECL Western Blotting Detection Reagents (Invitrogen)."}, "Bax-Bak DKO MEFs": {"test_system": "Bax-Bak DKO MEFs", "assay": "Annexin V/PI flow cytometry cell death, Bax-Bak DKO MEFs", "type": "cell-based, mouse", "details": "24 h", "protocol": "as §2, with “experiments. Cell death is measured using an annexin V staining kit (BD Biosciences, San Jose, Calif., USA). Briefly, Bax-Bak DKO MEFs are treated with the 5 μM pomiferin in the presence or absence of 5 mM autophagic inhibitor 3-MA for 24 h. Cells are then harvested and analysed by multiparametric flow cytometry using FITC-Annexin V and Propidium iodide staining (BD Biosciences, San Jose, Calif., USA) according to the manufacturer's instructions. Flow cytometry is then carried out using a FACSCalibur flow cytometer (BD Biosciences, San Jose, Calif., USA). Data acquisition and analysis is performed with CellQuest (BD Biosciences, San Jose, Calif., USA). Data are obtained from three independent experiments.” for “experiments.”"}, "[4]": {"test_system": "Atg7 wild-type (Atg7+/+) mouse embryonic fibroblasts", "assay": "Annexin V/PI flow cytometry cell death, Atg7+/+ MEFs", "type": "cell-based", "details": "2 μM, 24 h, FIG. 6B", "protocol": "as §2, with “viability” for “death”, “Atg7” for “Bax-Bak”, “wild-type (Atg7+/+ or Atg7-wt)” for “wild-type”, “Atg7 deficient (Atg7−/− or Atg7-ko) mouse embryonic fibroblasts (MEFs)” for “Bax-Bak DKO MEFs”, “2” for “5”"}, "[5]": {"test_system": "Bax-Bak double knock out (DKO) mouse embryonic fibroblasts", "assay": "MTT cytotoxicity assay, Bax-Bak DKO MEFs", "type": "cell-based", "details": "Fibroblast, 72 h, 3 days, read-out: Means of IC50", "protocol": "as §1"}},
  "data": [
    {"compound": "CC(C)=CCc1c2c(c3occ(-c4ccc(O)c(O)c4)c(=O)c3c1O)C=CC(C)(C)O2", "note": "[pomiferin]", "values": [
      {"measurement": "IC50", "setting": "[1]", "result": 2130, "unit": "nM"},
      {"measurement": "cell death", "setting": "Bax-Bak wild-type MEFs", "result": "~40", "unit": "%"},
      {"measurement": "IC50", "setting": "[2]", "result": 7360, "unit": "nM"},
      {"measurement": "p70S6K phosphorylation (mTOR downstream)", "setting": "[3]", "result": "concomitant reduction"},
      {"measurement": "phosphorylation of AMPK", "setting": "[3]", "result": "activate the phosphorylation of AMPK in a time dependent manner"},
      {"measurement": "cell death (in words)", "setting": "Bax-Bak DKO MEFs; 5 μM pomiferin alone, Bax-Bak DKO cells, FIG. 8B", "result": "significantly induced cell death"},
      {"measurement": "cell death", "setting": "Bax-Bak DKO MEFs; 5 μM, annexin V flow cytometry, Bax-Bak DKO MEFs", "result": "~80", "unit": "%"},
      {"measurement": "cell death (in words)", "setting": "[4]", "result": "markedly induce cell death"},
      {"measurement": "IC50", "setting": "[5]", "result": 986, "unit": "nM"}
    ]}
  ]
}
